Assay results: patent US20160046597A1, “RORC2 INHIBITORS AND METHODS OF USE THEREOF” (PFIZER INC., priority 2013, published 2016)

Biological target: T1, RORC2 ligand binding domain (6-His-RORC2 LBD) (Homo sapiens, UniProt P51449)
T1 construct: made in house; host or cells: E. coli
T1 sequence (P51449 269-508 limits assumed): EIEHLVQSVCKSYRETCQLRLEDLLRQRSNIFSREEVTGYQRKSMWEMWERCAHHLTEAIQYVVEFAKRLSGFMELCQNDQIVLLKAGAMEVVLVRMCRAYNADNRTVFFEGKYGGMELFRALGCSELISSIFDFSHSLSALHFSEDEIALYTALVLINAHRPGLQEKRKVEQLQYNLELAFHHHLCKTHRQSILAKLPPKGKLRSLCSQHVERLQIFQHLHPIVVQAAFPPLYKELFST
Assay: Co-activator recruitment by TR-FRET (RORC2 FRET)
Type: biochemical
Settings: 6.3 nM RORC2 LBD, 200 nM SRC1-2 coactivator peptide, 3 hours room temperature
Excerpt: The activity of compound of the invention can be determined by a co-activator recruitment by TR-FRET (time-resolved fluorescence resonance energy transfer) assay. […] Due to the long lasting fluorescence emission of Europium, the non-specific, short-lived fluorescence is time-resolved (TR) from the fluorescence of interest. Inhibitors of the interaction of receptor and coactivator peptide are detected by a decrease in TR-FRET signal.
Specifically, in one embodiment the aforementioned assay was performed as outlined below. The assay was carried out in black polystyrene, 384-well plates in a total assay volume of 50.5 μL. The assay buffer contained 50 mM TRIS-HCL pH 7.5, 1 mM NaCl, 2 mM MgCl2, 0.5 mg/mL bovine serum albumin, and 5 mM dithiothreitol.

| Compound | IC50 [nM] |
| --- | --- |
| O=C(Nc1ccc2[nH]cc(C3CCN(C(=O)C4CCCC4)CC3)c2c1)c1ccccc1F [Example 38, N-{3-[1-(cyclopentylcarbonyl)piperidin-4-yl]-1H-indol-5-yl}-2-fluorobenzamide] | 910 |
| COc1ccc(C#N)cc1C(=O)Nc1ccc2[nH]cc(C3CCN(C(=O)C4CCCC4)CC3)c2c1 [Example 40, 5-cyano-N-{3-[1-(cyclopentylcarbonyl)piperidin-4-yl]-1H-indol-5-yl}-2-methoxybenzamide] | 380 |
| N#Cc1ccc(F)c(C(=O)Nc2ccc3[nH]cc(C4CCN(C(=O)C5CCCC5)CC4)c3c2)c1 [Example 41, 5-cyano-N-{3-[1-(cyclopentylcarbonyl)piperidin-4-yl]-1H-indol-5-yl}-2-fluorobenzamide] | 327 |
| COc1ccc(C(=O)Nc2ccc3[nH]cc(C4CCN(C(=O)C5CCCC5)CC4)c3c2)nc1 [Example 42, N-{3-[1-(cyclopentylcarbonyl)piperidin-4-yl]-1H-indol-5-yl}-5-methoxypyridine-2-carboxamide] | 953 |
| O=C(Nc1ccc2[nH]cc(C3CCN(C(=O)C4CCCC4)CC3)c2c1)c1ccc2scnc2c1 [Example 43, N-{3-[1-(cyclopentylcarbonyl)piperidin-4-yl]-1H-indol-5-yl}-1,3-benzothiazole-5-carboxamide] | 1030 |
| O=C(Nc1ccc2[nH]cc(C3CCN(C(=O)C4CCCC4)CC3)c2c1)c1ccccc1Cl [Example 44, 2-chloro-N-{3-[1-(cyclopentylcarbonyl)piperidin-4-yl]-1H-indol-5-yl}benzamide] | 624 |
| O=C(Nc1ccc2[nH]cc(C3CCN(C(=O)C4CCCC4)CC3)c2c1)c1ccc(CO)cc1 [Example 45, N-{3-[1-(cyclopentylcarbonyl)piperidin-4-yl]-1H-indol-5-yl}-4-(hydroxymethyl)benzamide] | 3460 |
| O=C(Nc1ccc2[nH]cc(C3CCN(C(=O)C4CCCC4)CC3)c2c1)c1cccc(O)c1 [Example 46, N-{3-[1-(cyclopentylcarbonyl)piperidin-4-yl]-1H-indol-5-yl}-3-hydroxybenzamide] | 1450 |

The next compounds have a lower IC50 than those just listed; values first:

| IC50 [nM] | Compound |
| --- | --- |
| 121 | Cn1cc(C2CCN(C(=O)C34CC(C3)C4)CC2)c2cc(NC(=O)c3cc(C#N)ccn3)ccc21 [Example 31, N-{3[1-(bicyclo[1.1.1]pent-1-ylcarbonyl)piperidin-4-yl]-1-methyl-1H-indol-5-yl}-4-cyanopyridine-2-carboxamide] |
| 100 | COCC(=O)N1CCC(c2cn(C)c3ccc(NC(=O)c4cc(C#N)ccn4)cc23)CC1 [Example 34, 4-cyano-N-{3-[1-(methoxyacetyl)piperidin-4-yl]-1-methyl-1H-indol-5-yl}pyridine-2-carboxamide] |
| 35.5 | Cn1cc(C2CCN(C(=O)C3CC3(F)F)CC2)c2cc(NC(=O)c3cc(C#N)ccn3)ccc21 (stereo not drawn) [Example 32, 4-cyano-N-(3-{1-[(2,2-difluorocyclopropyl)carbonyl]piperidin-4-yl}-1-methyl-1H-indol-5-yl)pyridine-2-carboxamide] |
| 34.1 | N#Cc1ccnc(C(=O)Nc2ccc3[nH]cc(C4CCN(C(=O)C5CCCC5)CC4)c3c2)c1 [Example 37, 4-cyano-N-(3-(1-(cyclopentanecarbonyl)piperidin-4-yl)-1H-indol-5-yl)picolinamide] |
| 21.6 | Cn1cc(C2CCN(C(=O)CC(F)(F)F)CC2)c2cc(NC(=O)c3cc(C#N)ccn3)ccc21 [Example 35, 4-cyano-N-{1-methyl-3-[1-(3,3,3-trifluoropropanoyl)piperidin-4-yl]-1H-indol-5-yl}pyridine-2-carboxamide] |
| 14.3 | Cn1cc(C2CCN(C(=O)CCC(F)(F)F)CC2)c2cc(NC(=O)c3cc(C#N)ccn3)ccc21 [Example 30, 4-cyano-N-{1-methyl-3-[1-(4,4,4-trifluorobutanoyl)piperidin-4-yl]-1H-indol-5-yl}pyridine-2-carboxamide] |
| 7.6 | Cn1cc(C2CCN(C(=O)CC3CC3)CC2)c2cc(NC(=O)c3cc(C#N)ccn3)ccc21 [Example 33, 4-cyano-N-{3-[1-(cyclopropylacetyl)piperidin-4-yl]-1-methyl-1H-indol-5-yl}pyridine-2-carboxamide] |
